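Growth conditions: 96-well plates. Treatment: test compound, 48 hours, 5 concentrations. Analysis: linear interpolation between bracketing concentrations; unreached endpoints set to highest concentration. The concentration for 50% growth inhibition is given as GI50.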 The source made the active and inactive calls. Rule as the data show it: active = GI50 up to about 1.1 µM and inactive = higher.
Columns and labels:
Experiment in all cases: NCI anticancer screen, dose series, 48 h
786-0 = tested on: 786-0
A549 = tested on: A549
CCRF-CEM = tested on: CCRF-CEM
DU-145 = tested on: DU-145
HCT-116 = tested on: HCT-116
HL-60 = tested on: HL-60
IGROV-1 = tested on: IGROV-1
KM12 = tested on: KM12
LOX IMVI = tested on: LOX IMVI
MOLT-4 = tested on: MOLT-4
NCI-H23 = tested on: NCI-H23
OVCAR-5 = tested on: OVCAR-5
RPMI-8226 = tested on: RPMI-8226
SF-268 = tested on: SF-268
SR = tested on: SR
HT-29 = tested on: HT-29
Hs-578T = tested on: Hs-578T
NCI-H226 = tested on: NCI-H226
SK-OV-3 = tested on: SK-OV-3
RXF 393 = tested on: RXF 393

SMILES | GI50 (786-0) | GI50 (A549) | GI50 (CCRF-CEM) | GI50 (DU-145) | GI50 (HCT-116) | GI50 (HL-60) | GI50 (IGROV-1) | GI50 (KM12) | GI50 (LOX IMVI) | GI50 (MOLT-4) | GI50 (NCI-H23) | GI50 (OVCAR-5) | GI50 (RPMI-8226) | GI50 (SF-268) | GI50 (SR) | GI50 (HT-29) | GI50 (Hs-578T) | GI50 (NCI-H226) | GI50 (SK-OV-3) | GI50 (RXF 393)
COc1cc2c(c(OC)c1OC)-c1ccc(SC)cc1C(O)CC2 (stereo not drawn) | < 0.01 µM (active) | < 0.01 µM (active) | < 0.01 µM (active) | < 0.01 µM (active) | < 0.01 µM (active) | < 0.01 µM (active) | < 0.01 µM (active) | < 0.01 µM (active) | < 0.01 µM (active) | < 0.01 µM (active) | < 0.01 µM (active) | 14.6 µM (inactive) | < 0.01 µM (active) | < 0.01 µM (active) | < 0.01 µM (active) |  |  |  |  | 
COc1ccc2nc(-c3ccc(OC(=O)N(C)C)cc3)cn2c1 | 91.6 µM (inactive) | > 100 µM (inactive) | 67.5 µM (inactive) |  | > 100 µM (inactive) | > 100 µM (inactive) | > 100 µM (inactive) | 86.1 µM (inactive) | 82.8 µM (inactive) | 82 µM (inactive) | > 100 µM (inactive) | > 100 µM (inactive) |  | > 100 µM (inactive) | 38.9 µM (inactive) | 27.8 µM (inactive) | > 100 µM (inactive) | > 100 µM (inactive) | > 100 µM (inactive) | 
O=c1nc(-c2ccccc2)c2c3c(cccn13)CCC2 | > 100 µM (inactive) | > 100 µM (inactive) | > 100 µM (inactive) |  | > 100 µM (inactive) | > 100 µM (inactive) | > 100 µM (inactive) | > 100 µM (inactive) | > 100 µM (inactive) | > 100 µM (inactive) | > 100 µM (inactive) | > 100 µM (inactive) | > 100 µM (inactive) | > 100 µM (inactive) | > 100 µM (inactive) | > 100 µM (inactive) |  | 54 µM (inactive) | > 100 µM (inactive) | > 100 µM (inactive)
O=C(CCCCCCCCCCc1ccccc1)C1=C(O)CCCC1=O | 31.7 µM (inactive) | 18.4 µM (inactive) | 16.8 µM (inactive) |  | 22.9 µM (inactive) | 14.3 µM (inactive) | 35.4 µM (inactive) | 30.9 µM (inactive) | 26.2 µM (inactive) | 30.3 µM (inactive) | 20.2 µM (inactive) | 33.3 µM (inactive) | 29 µM (inactive) | 17.5 µM (inactive) | 23.8 µM (inactive) | 26.6 µM (inactive) |  | 26.1 µM (inactive) | 35.6 µM (inactive) | 25.1 µM (inactive)
COc1cc(C(C)O)c[n+](Cc2ccccc2)c1 (stereo not drawn) | > 100 µM (inactive) | > 100 µM (inactive) | > 100 µM (inactive) |  | > 100 µM (inactive) | > 100 µM (inactive) | > 100 µM (inactive) | > 100 µM (inactive) | > 100 µM (inactive) | > 100 µM (inactive) | > 100 µM (inactive) | > 100 µM (inactive) | > 100 µM (inactive) | > 100 µM (inactive) | > 100 µM (inactive) | > 100 µM (inactive) |  | > 100 µM (inactive) | > 100 µM (inactive) | > 100 µM (inactive)
CC1=C/C(=N\NS(=O)(=O)c2ccc([N+](=O)[O-])cc2)CC(C)(C)C1 | > 100 µM (inactive) | 48.8 µM (inactive) | > 100 µM (inactive) | > 100 µM (inactive) | 84.3 µM (inactive) | > 100 µM (inactive) | 57.5 µM (inactive) | 76.2 µM (inactive) | > 100 µM (inactive) | > 100 µM (inactive) | 92.9 µM (inactive) | > 100 µM (inactive) | > 100 µM (inactive) | 83.6 µM (inactive) | 79.6 µM (inactive) |  |  |  | > 100 µM (inactive) | > 100 µM (inactive)
CCOC(=O)N(CC)c1c(C(F)(F)F)cc(-c2ccccc2)[nH]c1=O | 64.3 µM (inactive) | 45.3 µM (inactive) | 16.4 µM (inactive) | 72.3 µM (inactive) | 48.5 µM (inactive) | 13.6 µM (inactive) | 47.2 µM (inactive) | 36.1 µM (inactive) | 68.4 µM (inactive) | 25.8 µM (inactive) | 52.2 µM (inactive) | > 100 µM (inactive) | 14.5 µM (inactive) |  |  | 61.1 µM (inactive) |  | > 100 µM (inactive) | 92 µM (inactive) | 28.2 µM (inactive)
CC(C)NC(=O)OCc1c(COC(=O)NC(C)C)c(-c2cc[n+](COC(=O)CC(C)(C)C)cc2)n2c1CCC2 | > 100 µM (inactive) | > 100 µM (inactive) | > 100 µM (inactive) |  |  | > 100 µM (inactive) | > 100 µM (inactive) |  |  | > 100 µM (inactive) | > 100 µM (inactive) |  | > 100 µM (inactive) |  | 42.4 µM (inactive) |  | > 100 µM (inactive) | > 100 µM (inactive) | > 100 µM (inactive) | > 100 µM (inactive)

Source: ChEMBL document CHEMBL1201862, “PubChem BioAssay data set” (2004)
